Laboratory results from ChEMBL document CHEMBL1135773, “Purine and pyrimidine (P2) receptors as drug targets” (J Med Chem, 2002).

Columns and labels:
P2X purinoceptor 1 [1] = biological target: T1, P2X purinoceptor 1 (Rattus norvegicus, UniProt P47824); test: The compound was evaluated for antagonist activity against recombinant rat P2X purinoceptor 1 (P2X1) at 1 uM, expressed in Xenopus oocytes; assay type: functional, cell-based, Oocyte
T1 sequence (P47824 whole entry): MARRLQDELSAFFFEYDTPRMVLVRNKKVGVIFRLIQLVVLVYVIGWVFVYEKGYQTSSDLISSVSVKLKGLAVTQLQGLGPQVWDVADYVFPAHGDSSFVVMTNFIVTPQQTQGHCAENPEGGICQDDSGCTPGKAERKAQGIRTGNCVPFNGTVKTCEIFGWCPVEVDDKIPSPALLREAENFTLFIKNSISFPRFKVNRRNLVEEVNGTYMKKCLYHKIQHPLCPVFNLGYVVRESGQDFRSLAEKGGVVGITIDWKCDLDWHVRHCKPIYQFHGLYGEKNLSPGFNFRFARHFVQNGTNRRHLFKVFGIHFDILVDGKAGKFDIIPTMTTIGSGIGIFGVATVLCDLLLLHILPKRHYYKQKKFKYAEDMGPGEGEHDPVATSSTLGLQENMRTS

P2X purinoceptor 3 [2] = biological target: P2X purinoceptor 3 (Rattus norvegicus, UniProt P49654); test: The compound was evaluated for antagonist activity against recombinant rat P2X purinoceptor 3 (P2X3) at 3 uM, expressed in Xenopus oocytes; assay type: functional, cell-based, Oocyte
P2X purinoceptor 2 [3] = biological target: T2, P2X purinoceptor 2 (Rattus norvegicus, UniProt P49653); test: The compound was evaluated for antagonist activity against recombinant rat P2X purinoceptor 2 (P2X2) at 30 uM; assay type: functional
T2 sequence (P49653 whole entry): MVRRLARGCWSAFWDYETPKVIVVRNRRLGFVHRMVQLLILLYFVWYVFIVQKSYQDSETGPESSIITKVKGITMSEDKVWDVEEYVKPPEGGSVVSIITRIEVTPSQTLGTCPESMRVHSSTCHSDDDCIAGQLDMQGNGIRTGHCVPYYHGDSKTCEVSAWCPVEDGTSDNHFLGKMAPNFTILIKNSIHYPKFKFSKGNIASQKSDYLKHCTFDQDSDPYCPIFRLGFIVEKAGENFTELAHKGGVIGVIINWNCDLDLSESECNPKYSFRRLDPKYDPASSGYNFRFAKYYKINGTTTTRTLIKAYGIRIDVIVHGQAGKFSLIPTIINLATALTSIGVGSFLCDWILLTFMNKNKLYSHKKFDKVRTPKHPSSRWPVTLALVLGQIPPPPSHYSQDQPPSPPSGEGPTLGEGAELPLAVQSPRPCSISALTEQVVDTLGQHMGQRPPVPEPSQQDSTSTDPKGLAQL

P2X purinoceptor 1 [4] = biological target: T1, P2X purinoceptor 1; test: The compound was evaluated for antagonist activity against recombinant rat P2X purinoceptor 1 (P2X1); assay type: functional
P2X purinoceptor 4 [5] = biological target: T3, P2X purinoceptor 4 (Rattus norvegicus, UniProt P51577); test: The compound was evaluated for antagonist activity against recombinant rat P2X purinoceptor 4 (P2X4) 3 uM; assay type: functional
T3 sequence (P51577 whole entry): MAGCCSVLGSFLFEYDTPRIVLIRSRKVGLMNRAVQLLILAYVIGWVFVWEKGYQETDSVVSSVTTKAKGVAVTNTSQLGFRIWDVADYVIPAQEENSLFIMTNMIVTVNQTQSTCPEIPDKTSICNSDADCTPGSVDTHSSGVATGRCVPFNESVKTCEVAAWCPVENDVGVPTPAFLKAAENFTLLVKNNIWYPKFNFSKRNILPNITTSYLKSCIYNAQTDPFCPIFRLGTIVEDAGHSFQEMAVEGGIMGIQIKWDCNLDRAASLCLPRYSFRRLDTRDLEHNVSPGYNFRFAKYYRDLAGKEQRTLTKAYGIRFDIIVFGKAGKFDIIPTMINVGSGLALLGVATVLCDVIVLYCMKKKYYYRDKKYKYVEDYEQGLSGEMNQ

P2X purinoceptor 1 [6] = biological target: T1, P2X purinoceptor 1; test: The compound was evaluated for antagonist activity against P2X purinoceptor 1 (P2X1) from rat vas deferens; assay type: functional
P2X purinoceptor 1 [7] = biological target: T1, P2X purinoceptor 1; test: Dissociation constant of the compound at P2X purinoceptor 1 (P2X1) from rat vas deferens was reported
P2X purinoceptor 2 [8] = biological target: T2, P2X purinoceptor 2; test: The compound was evaluated for antagonist activity against recombinant rat P2X purinoceptor 2 (P2X2) at 10 uM; assay type: functional
P2X purinoceptor 1 [9] = biological target: T4, P2X purinoceptor 1 (Homo sapiens, UniProt P51575); test: The compound was evaluated for antagonist activity against recombinant human P2X purinoceptor 1 (P2X1 ); assay type: functional
T4 sequence (P51575 whole entry): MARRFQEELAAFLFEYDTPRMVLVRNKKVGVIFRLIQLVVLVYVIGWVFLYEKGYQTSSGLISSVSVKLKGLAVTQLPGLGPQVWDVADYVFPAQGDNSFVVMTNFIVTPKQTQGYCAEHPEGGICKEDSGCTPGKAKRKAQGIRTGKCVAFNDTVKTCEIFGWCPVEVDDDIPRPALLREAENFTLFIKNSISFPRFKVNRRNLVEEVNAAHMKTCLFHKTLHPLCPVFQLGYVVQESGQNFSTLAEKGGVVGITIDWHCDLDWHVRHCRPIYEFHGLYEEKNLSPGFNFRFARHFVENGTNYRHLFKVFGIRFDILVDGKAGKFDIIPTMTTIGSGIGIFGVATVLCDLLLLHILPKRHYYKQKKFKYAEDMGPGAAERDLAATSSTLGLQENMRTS

P2X purinoceptor 3 [10] = biological target: T5, P2X purinoceptor 3 (Homo sapiens, UniProt P56373); test: The compound was evaluated for antagonist activity against recombinant human P2X purinoceptor 3 (P2X3 ); assay type: functional
T5 sequence (P56373 whole entry): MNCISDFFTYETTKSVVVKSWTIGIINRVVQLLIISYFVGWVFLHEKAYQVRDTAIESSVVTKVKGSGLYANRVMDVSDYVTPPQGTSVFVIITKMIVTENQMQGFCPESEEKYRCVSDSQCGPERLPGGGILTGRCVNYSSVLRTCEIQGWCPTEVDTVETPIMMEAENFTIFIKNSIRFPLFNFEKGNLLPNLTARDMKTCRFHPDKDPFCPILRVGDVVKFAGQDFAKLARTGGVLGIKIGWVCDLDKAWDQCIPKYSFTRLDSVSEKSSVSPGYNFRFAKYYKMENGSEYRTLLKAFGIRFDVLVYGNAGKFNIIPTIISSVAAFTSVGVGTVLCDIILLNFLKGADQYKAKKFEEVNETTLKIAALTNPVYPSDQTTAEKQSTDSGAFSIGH

P2X purinoceptor 4 [11] = biological target: T6, P2X purinoceptor 4 (Homo sapiens, UniProt Q99571); test: The compound was evaluated for antagonist activity against recombinant human P2X purinoceptor 4 (P2X4); assay type: functional
T6 sequence (Q99571 whole entry): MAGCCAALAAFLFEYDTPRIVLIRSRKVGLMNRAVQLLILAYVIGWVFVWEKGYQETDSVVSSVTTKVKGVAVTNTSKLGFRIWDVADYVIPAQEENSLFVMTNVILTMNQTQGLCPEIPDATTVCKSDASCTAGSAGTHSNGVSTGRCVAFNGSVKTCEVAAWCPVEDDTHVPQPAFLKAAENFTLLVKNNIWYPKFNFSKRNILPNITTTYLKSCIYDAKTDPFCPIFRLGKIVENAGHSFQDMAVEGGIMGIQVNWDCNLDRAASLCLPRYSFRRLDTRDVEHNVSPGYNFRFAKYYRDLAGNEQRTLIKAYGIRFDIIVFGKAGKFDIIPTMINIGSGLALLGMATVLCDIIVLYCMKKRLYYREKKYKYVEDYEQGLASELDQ

P2X purinoceptor 4 [12] = biological target: T3, P2X purinoceptor 4; test: The compound was evaluated for antagonist activity against recombinant rat P2X purinoceptor 4 (P2X4) at 10 uM; assay type: functional

P2X purinoceptor 3 (Rattus norvegicus, UniProt P49654), sequence (P49654 whole entry): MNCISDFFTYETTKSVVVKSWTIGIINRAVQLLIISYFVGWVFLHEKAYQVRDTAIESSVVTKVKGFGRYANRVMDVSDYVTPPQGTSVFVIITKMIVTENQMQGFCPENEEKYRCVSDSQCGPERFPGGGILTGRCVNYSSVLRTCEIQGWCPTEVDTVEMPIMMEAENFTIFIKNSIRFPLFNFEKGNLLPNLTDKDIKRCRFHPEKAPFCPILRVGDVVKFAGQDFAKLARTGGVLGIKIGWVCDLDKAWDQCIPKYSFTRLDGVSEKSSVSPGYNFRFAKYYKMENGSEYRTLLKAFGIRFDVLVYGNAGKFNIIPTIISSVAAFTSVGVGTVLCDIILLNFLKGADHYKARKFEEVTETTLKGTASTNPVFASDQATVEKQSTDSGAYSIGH

Cc1nc(/N=N/c2cc(CP(=O)(O)O)cc(CP(=O)(O)O)c2)c(COP(=O)(O)O)c(C=O)c1O
EC50 (P2X purinoceptor 1 [1]): 0.005 µM
EC50 (P2X purinoceptor 3 [2]): 0.022 µM

Cc1ncc2c(c1O)COP(=O)(O)OC2
EC50 (P2X purinoceptor 2 [3]): 100 µM
EC50 (P2X purinoceptor 1 [4]): 10.2 µM
IC50 (P2X purinoceptor 4 [5]): > 100 µM

Nc1c(S(=O)(=O)O)cc(Nc2ccc(Nc3nc(Cl)nc(Nc4ccccc4S(=O)(=O)O)n3)c(S(=O)(=O)O)c2)c2c1C(=O)c1ccccc1C2=O [CIBACRON BLUE 3GA]
IC50 (P2X purinoceptor 1 [6]): 9.6 µM
Kd (P2X purinoceptor 1 [7]): 1.6 µM

O=C(Nc1cccc(C(=O)Nc2ccc(S(=O)(=O)O)c3cc(S(=O)(=O)O)cc(S(=O)(=O)O)c23)c1)Nc1cccc(C(=O)Nc2ccc(S(=O)(=O)O)c3cc(S(=O)(=O)O)cc(S(=O)(=O)O)c23)c1
IC50 (P2X purinoceptor 2 [8]): > 50 µM
IC50 (P2X purinoceptor 1 [9]): 0.21 µM
IC50 (P2X purinoceptor 3 [10]): 28.5 µM
IC50 (P2X purinoceptor 4 [11]): > 100 µM

Cc1ncc(COP(=O)(O)O)c(C=O)c1O [PYRIDOXAL PHOSPHATE ANHYDROUS]
EC50 (P2X purinoceptor 1 [4]): 3 µM
EC50 (P2X purinoceptor 4 [12]): 219 µM
